Assay results from ChEMBL document CHEMBL1201862, “PubChem BioAssay data set” (2004).
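A five-concentration, 48-hour dose response in 96-well plates underlies each endpoint, interpolated linearly between surrounding concentrations. At the GI50, growth is halved.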 The source made the active and inactive calls. No stated cut-off is given here; in the data, active = GI50 up to about 1.1 µM and inactive = higher.

How the values were obtained:
Test in all cases: NCI tumour cell line growth inhibition, 48 h
786-0 = test system: 786-0
A549 = test system: A549
ACHN = test system: ACHN
CAKI-1 = test system: CAKI-1
CCRF-CEM = test system: CCRF-CEM
COLO 205 = test system: COLO 205
DLD-1 = test system: DLD-1
DMS-114 = test system: DMS-114
DMS-273 = test system: DMS-273
EKVX = test system: EKVX
HCC 2998 = test system: HCC 2998
HCT-116 = test system: HCT-116
HCT-15 = test system: HCT-15
HOP-62 = test system: HOP-62
HT-29 = test system: HT-29
IGROV-1 = test system: IGROV-1
K562 = test system: K562
KM-20L2 = test system: KM-20L2
KM12 = test system: KM12
LOX IMVI = test system: LOX IMVI
LXFL 529 = test system: LXFL 529
M14 = test system: M14
M19-MEL = test system: M19-MEL
MOLT-4 = test system: MOLT-4
Malme-3M = test system: Malme-3M
NCI-H226 = test system: NCI-H226
NCI-H23 = test system: NCI-H23
NCI-H460 = test system: NCI-H460
NCI-H522 = test system: NCI-H522
OVCAR-3 = test system: OVCAR-3
OVCAR-4 = test system: OVCAR-4
OVCAR-5 = test system: OVCAR-5
OVCAR-8 = test system: OVCAR-8
RPMI-8226 = test system: RPMI-8226
RXF 631 = test system: RXF 631
SF-268 = test system: SF-268
SF-295 = test system: SF-295
SF-539 = test system: SF-539
SK-MEL-28 = test system: SK-MEL-28
SK-MEL-2 = test system: SK-MEL-2
SK-MEL-5 = test system: SK-MEL-5
SK-OV-3 = test system: SK-OV-3
SN12C = test system: SN12C
SNB-19 = test system: SNB-19
SNB-75 = test system: SNB-75
SR = test system: SR
SW-620 = test system: SW-620
U-251 = test system: U-251
UACC-257 = test system: UACC-257
UACC-62 = test system: UACC-62
UO-31 = test system: UO-31
HL-60 = test system: HL-60
HOP-18 = test system: HOP-18
HOP-92 = test system: HOP-92
RXF 393 = test system: RXF 393
SNB-78 = test system: SNB-78
TK-10 = test system: TK-10

Measured: GI50

Cc1ccc(S(=O)(=O)c2c(N)c3nc4ccccc4n3c3nc4ccccc4nc23)cc1
inactive: 786-0 4.93 µM | A549 > 100 µM | ACHN > 100 µM | CAKI-1 > 100 µM | CCRF-CEM > 100 µM | COLO 205 > 100 µM | DLD-1 > 100 µM | DMS-114 > 100 µM | DMS-273 > 100 µM | EKVX > 100 µM | HCC 2998 > 100 µM | HCT-116 > 100 µM | HOP-62 7.59 µM | HT-29 > 100 µM | IGROV-1 > 100 µM | K562 > 100 µM | KM-20L2 > 100 µM | KM12 > 100 µM | LOX IMVI > 100 µM | LXFL 529 > 100 µM | M14 > 100 µM | M19-MEL > 100 µM | MOLT-4 > 100 µM | Malme-3M > 100 µM | NCI-H226 > 100 µM | NCI-H23 > 100 µM | NCI-H460 > 100 µM | NCI-H522 > 100 µM | OVCAR-3 > 100 µM | OVCAR-4 38.7 µM | OVCAR-5 > 100 µM | OVCAR-8 > 100 µM | RPMI-8226 > 100 µM | RXF 631 > 100 µM | SF-268 > 100 µM | SF-295 > 100 µM | SF-539 9.27 µM | SK-MEL-28 > 100 µM | SK-MEL-2 > 100 µM | SK-MEL-5 > 100 µM | SK-OV-3 > 100 µM | SN12C > 100 µM | SNB-19 > 100 µM | SNB-75 > 100 µM | SR > 100 µM | SW-620 > 100 µM | U-251 6.75 µM | UACC-257 > 100 µM | UACC-62 > 100 µM | UO-31 71.4 µM
> 100 µM: HCT-15

N#CC(C(=O)CCCC(=O)Nc1ccc(Cl)cc1Cl)c1ccccc1 (centres undefined)
inactive: 786-0 > 100 µM | A549 > 100 µM | ACHN > 100 µM | CAKI-1 > 100 µM | CCRF-CEM > 100 µM | COLO 205 > 100 µM | DLD-1 > 100 µM | DMS-114 > 100 µM | DMS-273 > 100 µM | EKVX > 100 µM | HCC 2998 > 100 µM | HCT-116 > 100 µM | HL-60 > 100 µM | HOP-18 > 100 µM | HOP-62 > 100 µM | HOP-92 > 100 µM | HT-29 > 100 µM | IGROV-1 > 100 µM | K562 > 100 µM | KM-20L2 > 100 µM | KM12 > 100 µM | LOX IMVI > 100 µM | M14 > 100 µM | M19-MEL > 100 µM | MOLT-4 > 100 µM | Malme-3M > 100 µM | NCI-H226 > 100 µM | NCI-H23 > 100 µM | NCI-H460 > 100 µM | OVCAR-3 > 100 µM | OVCAR-4 > 100 µM | OVCAR-5 > 100 µM | OVCAR-8 > 100 µM | RXF 393 > 100 µM | RXF 631 > 100 µM | SF-268 > 100 µM | SF-295 > 100 µM | SF-539 > 100 µM | SK-MEL-28 > 100 µM | SK-MEL-2 > 100 µM | SK-MEL-5 > 100 µM | SK-OV-3 > 100 µM | SN12C > 100 µM | SNB-19 > 100 µM | SNB-78 > 100 µM | SR > 100 µM | SW-620 > 100 µM | TK-10 > 100 µM | U-251 > 100 µM | UACC-257 > 100 µM | UACC-62 > 100 µM | UO-31 > 100 µM
> 100 µM: HCT-15
